In patent US8461107B2 (Merck Sharp & Dohme Corp., priority 2008, dated 2013):

Biological target: T1, HCV genotype 1b (BK) NS3 modified with a R155K mutation (Hepatitis C virus genotype 1b, UniProt P26663, R1181K)
T1 construct: HCV genotype 1b (BK) NS3 modified with a R155K mutation
Assay: HCV NS3 protease time-resolved fluorescence (TRF) assay, NS3 protease 1b R155K Ki activity
Format: biochemical
Settings: HCV genotype 1b (BK) NS3 with R155K mutation; TRF peptide substrate 100 nM; Ki derived from IC50
Summary of the method: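 Pre-incubation of NS3/NS4A protease (genotype 1b BK, R155K) with inhibitor for 30 min, then 1 h at room temperature with 100 nM TRF peptide substrate in pH 7.5 HEPES buffer with 10 mM DTT. Reaction quenched with pH 5.5 MES; time-resolved fluorescence read (ex 340/em 615 nm). Ki derived from four-parameter IC50 fit via IC50=Ki(1+[S]/KM).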

SMILES: C=C[C@@H]1C[C@]1(NC(=O)[C@@H]1C[C@@H]2CN1C(=O)[C@H](C(C)(C)C)NC(=O)O[C@@H]1CCC[C@H]1C/C=C/CCn1c(cc3cc(OC)ccc3c1=O)O2)C(=O)NS(=O)(=O)C1CC1 [(3aR,7S,10S,12R,23E,25aS)-7-tert-butyl-N-((1R,2S)-1-{[(cyclopropylsulfonyl)amino]carbonyl}-2-vinylcyclopropyl)-16-methoxy-5,8,19-trioxo-1,2,3,3a,5,6,7,8,11,12,21,22,25,25a-tetradecahydro-10H,19H-9,12-methanocyclopenta[18,19][1,10,3,6,12]dioxatriazacyclononadecino[12,11-b]isoquinoline-10-carboxamide]
- Ki: 0.1 to 0.5 nM

SMILES: C=C[C@@H]1C[C@]1(NC(=O)[C@@H]1C[C@@H]2CN1C(=O)[C@H](C1CCCC1)NC(=O)O[C@@H]1CCC[C@H]1CC/C=C/Cn1c(nc3cc(C#N)ccc3c1=O)O2)C(=O)NS(=O)(=O)C1CC1 [Example 63, (3aR,7S,10S,12R,22E,25a8)-16-cyano-7-cyclopentyl-N-((1R,2S)-1-{[(cyclopropylsulfonyl)amino]carbonyl}-2-vinylcyclopropyl)-5,8,19-trioxo-1,2,3,3a,5,6,7,8,11,12,21,24,25,25a-tetradecahydro-10H,19H-9,12-methanocyclopenta[18,19][1,10,3,6,12]dioxatriazacyclononadecino[11,12-b]quinazoline-10-carboxamide]
- Ki: < 0.1 nM

SMILES: CC[C@@H]1C[C@]1(NC(=O)[C@@H]1C[C@@H]2CN1C(=O)[C@H](C(C)(C)C)NC(=O)O[C@@H]1CCC[C@H]1CCCCCCn1c(cc3ccccc3c1=O)O2)C(=O)NS(=O)(=O)C1CC1 [(3aR,7S,10S,12R,26aR)-7-tert-butyl-N-((1R,2R)-1-{[(cyclopropylsulfonyl)amino]carbonyl}-2-ethylcyclopropyl)-5,8,19-trioxo-2,3,3a,5,6,7,8,11,12,21,22,23,24,25,26,26a-hexadecahydro-1H,10H,19H-9,12-methanocyclopenta[19,20][1,10,3,6,12]dioxatriazacycloicosino[12,11-b]isoquinoline-10-carboxamide]
- Ki: 1 to 5 nM

SMILES: CC[C@@H]1C[C@]1(NC(=O)[C@@H]1C[C@@H]2CN1C(=O)[C@H](C1CCCC1)NC(=O)O[C@@H]1CCC[C@H]1CC/C=C/Cn1c(nc3cc(C)ccc3c1=O)O2)C(=O)NS(=O)(=O)C1CC1 [(1R,14E,18S,22R,26S,29S)-26-cyclopentyl-N-((1R,2R)-1-{[(cyclopropylsulfonyl)amino]carbonyl}-2-ethylcyclopropyl)-7-methyl-11,24,27-trioxo-2,23-dioxa-4,12,25,28-tetraazapentacyclo[26.2.1.0^3,12.0^5,10.0^18,22]hentriaconta-3,5,7,9,14-pentaene-29-carboxamide]
- Ki: 0.1 to 0.5 nM

SMILES: C=C[C@@H]1C[C@]1(NC(=O)[C@@H]1C[C@@H]2CN1C(=O)[C@H](C1CCCC1)NC(=O)O[C@@H]1CCC[C@H]1CCCCCn1c(cccc1=O)O2)C(=O)NS(=O)(=O)C1CC1 [(1R,14R,18R,22S,25S)-22-cyclopentyl-N-((1R,2S)-1-{[(cyclopropylsulfonyl)amino]carbonyl}-2-vinylcyclopropyl)-7,20,23-trioxo-2,19-dioxa-8,21,24-triazatetracyclo[22.2.1.0^3,8.0^14,18]heptacosa-3,5-diene-25-carboxamide]
- Ki: 0.1 to 0.5 nM

SMILES: C=C[C@@H]1C[C@]1(NC(=O)[C@@H]1C[C@@H]2CN1C(=O)[C@H](C1CCCC1)NC(=O)O[C@@H]1CCC[C@H]1CCC/C=C/Cn1c(cc3ccccc3c1=O)O2)C(=O)NS(=O)(=O)C1CC1 [(3aR,7S,10S,12R,22E,26aR)-7-cyclopentyl-N-((1R,2S)-1-{[(cyclopropylsulfonyl)amino]carbonyl}-2-vinylcyclopropyl)-5,8,19-trioxo-2,3,3a,5,6,7,8,11,12,21,24,25,26,26a-tetradecahydro-1H,10H,19H-9,12-methanocyclopenta[19,20][1,10,3,6,12]dioxatriazacycloicosino[12,11-b]isoquinoline-10-carboxamide]
- Ki: 0.1 to 0.5 nM

SMILES: CC[C@@H]1C[C@]1(NC(=O)[C@@H]1C[C@@H]2CN1C(=O)[C@H](C1CCCC1)NC(=O)O[C@@H]1CCC[C@H]1CCCCCn1c(nc3ccccc3c1=O)O2)C(=O)NS(=O)(=O)C1CC1 [(3aR,7S,10S,12R,25aR)-7-cyclopentyl-N-((1R,2R)-1-{[(cyclopropylsulfonyl)amino]carbonyl}-2-ethylcyclopropyl)-5,8,19-trioxo-1,2,3,3a,5,6,7,8,11,12,21,22,23,24,25,25a-hexadecahydro-10H,19H-9,12-methanocyclopenta[18,19][1,10,3,6,12]dioxatriazacyclononadecino[11,12-b]quinazoline-10-carboxamide]
- Ki: 0.1 to 0.5 nM

SMILES: C=C[C@@H]1C[C@]1(NC(=O)[C@@H]1C[C@@H]2CN1C(=O)[C@H](C1CCCC1)NC(=O)O[C@@H]1CCC[C@H]1CCCCCn1c(nc3cc(OC)ccc3c1=O)O2)C(=O)NS(=O)(=O)C1CC1 [(3aR,7S,10S,12R,25aR)-7-cyclopentyl-N-((1R,2S)-1-{[(cyclopropylsulfonyl)amino]carbonyl}-2-vinylcyclopropyl)-16-methoxy-5,8,19-trioxo-1,2,3,3a,5,6,7,8,11,12,21,22,23,24,25,25a-hexadecahydro-10H,19H-9,12-methanocyclopenta[18,19][1,10,3,6,12]dioxatriazacyclononadecino[11,12-b]quinazoline-10-carboxamide]
- Ki: < 0.1 nM

SMILES: C=C[C@@H]1C[C@]1(NC(=O)[C@@H]1C[C@@H]2CN1C(=O)[C@H](C1CCCC1)NC(=O)O[C@@H]1CCC[C@H]1C/C=C/CCn1c(cc3cc(OC)ccc3c1=O)O2)C(=O)NS(=O)(=O)C1CC1 [(3aR,7S,10S,12R,23E,25aS)-7-cyclopentyl-N-((1R,2S)-1-{[(cyclopropylsulfonyl)amino]carbonyl}-2-vinylcyclopropyl)-16-methoxy-5,8,19-trioxo-1,2,3,3a,5,6,7,8,11,12,21,22,25,25a-tetradecahydro-10H,19H-9,12-methanocyclopenta[18,19][1,10,3,6,12]dioxatriazacyclononadecino[12,11-b]isoquinoline-10-carboxamide]
- Ki: < 0.1 nM

SMILES: C=C[C@@H]1C[C@]1(NC(=O)[C@@H]1C[C@@H]2CN1C(=O)[C@H](C1CCCC1)NC(=O)O[C@@H]1CCC[C@H]1CC/C=C/Cn1c(nc3cc(Cl)ccc3c1=O)O2)C(=O)NS(=O)(=O)C1CC1 [(3aR,7S,10S,12R,22E,25aS)-16-chloro-7-cyclopentyl-N-((1R,2S)-1-{[(cyclopropylsulfonyl)amino]carbonyl}-2-vinylcyclopropyl)-5,8,19-trioxo-1,2,3,3a,5,6,7,8,11,12,21,24,25,25a-tetradecahydro-10H,19H-9,12-methanocyclopenta[18,19][1,10,3,6,12]dioxatriazacyclononadecino[11,12-b]quinazoline-10-carboxamide]
- Ki: < 0.1 nM

SMILES: C=C[C@@H]1C[C@]1(NC(=O)[C@@H]1C[C@@H]2CN1C(=O)[C@H](C1CCCC1)NC(=O)O[C@@H]1CCC[C@H]1CCCCn1c(cc3ccccc3c1=O)O2)C(=O)NS(=O)(=O)C1CC1 [Example 19, (3aR,7S,10S,12R,24aR)-7-cyclopentyl-N-((1R,2S)-1-{[(cycloproylsulfonyl)amino]carbonyl}-2-vinylcyclopropyl)-5,8,19-trioxo-2,3,3a,5,6,7,8,11,12,21,22,23,24,24a-tetradecahydro-1H,10H,19H-9,12-methanocyclopenta[17,18][1,10,3,6,12]dioxatriazacyclooctadecino[12,11-b]isoquinoline-10-carboxamide]
- Ki: 0.1 to 0.5 nM

SMILES: CC[C@@H]1C[C@]1(NC(=O)[C@@H]1C[C@@H]2CN1C(=O)[C@H](C1CCCC1)NC(=O)O[C@@H]1CCC[C@H]1CCCCCn1c(nc3cc(Cl)ccc3c1=O)O2)C(=O)NS(=O)(=O)C1CC1 [(3aR,7S,10S,12R,25aR)-16-chloro-7-cyclopentyl-N-((1R,2R)-1-{[(cyclopropylsulfonyl)amino]carbonyl}-2-ethylcyclopropyl)-5,8,19-trioxo-1,2,3,3a,5,6,7,8,11,12,21,22,23,24,25,25a-hexadecahydro-10H,19H-9,12-methanocyclopenta[18,19][1,10,3,6,12]dioxatriazacyclononadecino[11,12-b]quinazoline-10-carboxamide]
- Ki: 0.1 to 0.5 nM

SMILES: CC[C@@H]1C[C@]1(NC(=O)[C@@H]1C[C@@H]2CN1C(=O)[C@H](C1CCCC1)NC(=O)O[C@H]1C[C@@H]1CCCCCn1c(cc3ccccc3c1=O)O2)C(=O)NS(=O)(=O)C1CC1 [(1aS,5S,8S,10R,23aS)-5-cyclopentyl-N-((1R,2R)-1-{[(cyclopropylsulfonyl)amino]carbonyl}-2-ethylcyclopropyl)-3,6,17-trioxo-1,1a,3,4,5,6,9,10,19,20,21,22,23,23a-tetradecahydro-8H,17H-7,10-methanocyclopropa[18,19][1,10,3,6,12]dioxatriazacyclononadecino[12,11-b]isoquinoline-8-carboxamide]
- Ki: 0.1 to 0.5 nM

SMILES: CC[C@@H]1C[C@]1(NC(=O)[C@@H]1C[C@@H]2CN1C(=O)[C@H](C(C)(C)C)NC(=O)O[C@H]1CCC[C@@H]1CCCCCCn1c(cc3ccccc3c1=O)O2)C(=O)NS(=O)(=O)C1CC1 [(3aS,7S,10S,12R,26aS)-7-tert-butyl-N-((1R,2R)-1-{[(cyclopropylsulfonyl)amino]carbonyl}-2-ethylcyclopropyl)-5,8,19-trioxo-2,3,3a,5,6,7,8,11,12,21,22,23,24,25,26,26a-hexadecahydro-1H,10H,19H-9,12-methanocyclopenta[19,20][1,10,3,6,12]dioxatriazacycloicosino[12,11-b]isoquinoline-10-carboxamide]
- Ki: 1 to 5 nM
